The record followed here is patent US10196381B2, “Benzimidazole-2-piperazine heterocyclic compound, pharmaceutical composition containing the same, preparation method and use thereof” (Shanghai Huilun Life Science & Technology Co., Ltd., priority 2013, dated 2019).

This assay has as its target PARP-1 enzyme (Homo sapiens (Human), UniProt P09874). Description: PARP enzyme activity assay (HT Universal Chemiluminescent PARP Assay Kit, histone-coated wells). The conditions noted are these: for inhibition at 0.03 µM: read-out: Inhibition (%) at 30 nM; for inhibition at 0.1 µM: read-out: Inhibition (%) at 100 nM. Type of assay: biochemical. The procedure:
PARP is an enzyme responsible for post-translational modification, which may be activated by means of DNA damage. The process catalyzed by PARP in vivo is mainly NAD-dependent poly(ADP-ribosyl)ation, in which the substrates are mainly some nuclear proteins including PARP, one example of which is histone. In the present invention, the PARP activity is assayed by determining the poly(ADP-ribosyl)ation degree of histone coated in a 96-well plate in the presence of NAD, and the PARP activity under the action of a PARP inhibitor is correspondingly assayed, thereby evaluating the degree of inhibition of the compounds on PARP activity. Poly(ADP-ribosyl)ation of nuclear proteins is a post-translational modification occurred in response to DNA damage. PARP is the abbreviation of poly(ADP-ribose)polymerase, which catalyzes the attachment of poly(ADP-ribose) to an adjacent nuclear protein in the presence of NAD, thus eliciting a mechanism of DNA repair through base excision repair pathway. The level of biotin-labeled ADP-ribose binding to histone can be detected by using the HT Universal Chemiluminescent PARP Assay Kit commercially available from Trevigen Corp. […] HT Universal Chemiluminescent PARP Assay Kit with Histone-coated Strip Wells, commercially available from Trevigen (US), Catalog #: 4676-096-K. […] 4. The PARP enzyme was carefully diluted with the 1×PARP buffer just before use, the diluted enzyme solution should be used as quickly as possible and the remaining solution should be discarded. […] 2. […] 1. […] 2. […] 4. […] After washing, equal volume of the PeroxyGlow A and B solutions were uniformly mixed, 100 μl of the solution was added to each well, and the chemiluminescent signals were recorded on a plate reader immediately. The readout of each well is converted into the percent inhibition. […] Note: the readout of the positive control well is designated as 100% enzyme activity; the readout of the negative control well is designated as 0% enzyme activity; and the activity X refers to the readout from respective concentration of each sample.

What is called inhibition is the change of the read-out against control, counted positive when it falls.

PARP-1 enzyme, sequence (P09874 whole entry): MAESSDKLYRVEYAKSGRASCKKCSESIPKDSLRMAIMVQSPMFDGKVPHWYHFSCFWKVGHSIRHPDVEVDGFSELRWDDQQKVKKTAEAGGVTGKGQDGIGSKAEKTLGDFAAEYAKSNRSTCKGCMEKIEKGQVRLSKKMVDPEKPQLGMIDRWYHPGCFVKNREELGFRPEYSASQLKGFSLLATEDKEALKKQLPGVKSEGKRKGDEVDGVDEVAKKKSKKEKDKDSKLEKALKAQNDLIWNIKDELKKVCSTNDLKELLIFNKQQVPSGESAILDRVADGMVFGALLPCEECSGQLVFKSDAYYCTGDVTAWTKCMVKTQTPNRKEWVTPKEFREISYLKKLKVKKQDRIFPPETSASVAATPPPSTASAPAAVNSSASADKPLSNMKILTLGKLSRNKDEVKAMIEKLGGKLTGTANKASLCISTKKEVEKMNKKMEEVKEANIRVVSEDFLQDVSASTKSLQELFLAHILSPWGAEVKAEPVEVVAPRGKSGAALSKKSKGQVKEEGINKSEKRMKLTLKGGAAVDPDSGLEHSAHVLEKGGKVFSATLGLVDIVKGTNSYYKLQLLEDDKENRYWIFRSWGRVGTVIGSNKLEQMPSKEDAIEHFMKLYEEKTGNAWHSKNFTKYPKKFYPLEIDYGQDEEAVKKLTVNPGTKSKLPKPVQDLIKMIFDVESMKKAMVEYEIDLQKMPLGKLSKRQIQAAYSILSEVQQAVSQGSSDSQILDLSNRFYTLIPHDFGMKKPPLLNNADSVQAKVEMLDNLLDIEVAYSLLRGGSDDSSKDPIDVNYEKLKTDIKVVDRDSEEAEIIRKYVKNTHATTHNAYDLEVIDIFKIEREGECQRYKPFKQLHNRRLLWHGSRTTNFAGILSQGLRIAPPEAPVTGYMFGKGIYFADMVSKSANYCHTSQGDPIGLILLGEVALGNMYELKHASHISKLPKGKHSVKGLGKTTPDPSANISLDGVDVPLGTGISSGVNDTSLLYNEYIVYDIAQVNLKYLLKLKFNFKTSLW

With `CNC(=O)c1ccc(N2CCN(c3nc4c(C(N)=O)cc(F)cc4[nH]3)CC2)nn1` [Compound (23), 6-fluoro-2-(4-(6-methylcarbamoylpyridazin-3-yl)piperazin-1-yl)-1H-benzimidazole-4-carboxamide], the inhibition at 0.03 µM came to 78% and the inhibition at 0.1 µM turned out to be 89%.

For `NC(=O)c1ccc(N2CCN(c3nc4c(C(N)=O)cccc4[nH]3)CC2)nc1` [Compound (12), 2-(4-(5-carbamoylpyridin-2-yl)piperazin-1-yl)-1H-benzimidazole-4-carboxamide], the inhibition at 0.03 µM turned out to be 57% and the inhibition at 0.1 µM came out at 77%.

Turning to `CN(C)C(=O)c1ccc(N2CCN(c3nc4c(C(N)=O)cc(F)cc4[nH]3)CC2)nc1` [Compound (18), 2-(4-(5-(dimethylcarbamoyl)pyridin-2-yl)piperazin-1-yl)-6-fluoro-1H-benzimidazole-4-carboxamide], the inhibition at 0.03 µM turned out to be 56% and the inhibition at 0.1 µM was found to be 77%.

Consider `NC(=O)c1cccc2[nH]c(N3CCN(c4ncc(F)cn4)CC3)nc12` [Compound (2), 2-(4-(5-fluoropyrimidin-2-yl)piperazin-1-yl)-1H-benzimidazole-4-carboxamide], for which the inhibition at 0.03 µM is 42% and the inhibition at 0.1 µM came out at 69%.

Consider `CN(C)C(=O)c1ncc(N2CCN(c3nc4c(C(N)=O)cc(F)cc4[nH]3)CC2)cn1` [Compound (41), 2-(4-(2-dimethylcarbamoylpyrimidin-5-yl)piperazin-1-yl)-6-fluoro-1H-benzimidazole-4-carboxamide], for which the inhibition at 0.03 µM is 75% and the inhibition at 0.1 µM is 92%.

On to `CNC(=O)c1ccc(N2CCN(c3nc4c(C(N)=O)cccc4[nH]3)CC2)nc1` [Compound (11), 2-(4-(5-methylcarbamoylpyridin-2-yl)piperazin-1-yl)-1H-benzimidazole-4-carboxamide], for which the inhibition at 0.03 µM was found to be 59% and the inhibition at 0.1 µM is 78%.

In the case of `NC(=O)c1cccc2[nH]c(N3CCN(c4cc(C(F)(F)F)ncn4)CC3)nc12` [Compound (10), 2-(4-(6-trifluoromethylpyrimidin-4-yl)piperazin-1-yl)-1H-benzimidazole-4-carboxamide], the inhibition at 0.03 µM is 38% and the inhibition at 0.1 µM was 64%.

On to `CNC(=O)c1ncc(N2CCN(c3nc4c(C(N)=O)cc(F)cc4[nH]3)CC2)cn1` [Compound (39)], for which the inhibition at 0.03 µM is 78% and the inhibition at 0.1 µM was determined as 92%.

With `COc1cnc(N2CCN(c3nc4c(C(N)=O)cccc4[nH]3)CC2)nc1` [Compound (5), 2-(4-(5-methoxypyrimidin-2-yl)piperazin-1-yl)-1H-benzimidazole-4-carboxamide], the inhibition at 0.03 µM came out at 32% and the inhibition at 0.1 µM was found to be 60%.

`NC(=O)c1cccc2[nH]c(N3CCN(c4ncc(N)cn4)CC3)nc12` [Compound (6), 2-(4-(5-aminopyrimidin-2-yl)piperazin-1-yl)-1H-benzimidazole-4-carboxamide]: the inhibition at 0.03 µM was found to be 26% and the inhibition at 0.1 µM was found to be 54%.

Regarding `CNC(=O)c1cnc(N2CCN(c3nc4c(C(N)=O)cc(F)cc4[nH]3)CC2)cn1` [Compound (25), 6-fluoro-2-(4-(5-methylcarbamoylpyrazin-2-yl)piperazin-1-yl)-1H-benzimidazole-4-carboxamide], the inhibition at 0.03 µM stood at 79% and the inhibition at 0.1 µM worked out at 92%.

Take `CNC(=O)c1cccnc1N1CCN(c2nc3c(C(N)=O)cc(F)cc3[nH]2)CC1` [Compound (20), 6-fluoro-2-(4-(3-methylcarbamoylpyridin-2-yl)piperazin-1-yl)-1H-benzimidazole-4-carboxamide]: the inhibition at 0.03 µM was 39% and the inhibition at 0.1 µM was 67%.

Take `CNC(=O)c1ccc(N2CCN(c3nc4c(C(N)=O)cc(F)cc4[nH]3)CC2)nc1` [Compound (24), 6-fluoro-2-(4-(5-methylcarbamoylpyridin-2-yl)piperazin-1-yl)-1H-benzimidazole-4-carboxamide]: the inhibition at 0.03 µM stood at 45% and the inhibition at 0.1 µM was 65%.

As for `NC(=O)c1cc(F)cc2[nH]c(N3CCN(c4ncc(F)cn4)CC3)nc12` [Compound (17), 6-fluoro-2-(4-(5-fluoropyrimidin-2-yl)piperazin-1-yl)-1H-benzimidazole-4-carboxamide], the inhibition at 0.03 µM amounted to 56% and the inhibition at 0.1 µM was found to be 78%.
